Laboratory results: US9045490B2, “Use of parthenolide derivatives as antileukemic and cytotoxic agents” (University of Kentucky, priority 2003, dated 2015)

Legend:
[1] = Preliminary toxicity study in mice; assay type: in vivo; conditions: oral 40 mg/kg daily, three weeks, mice gained weight and survived
Description: Preliminary in vivo work was conducted to determine the bioavailability and toxicity of this agent in mice.

[2] = system: MDA-MB-231 breast cancer cells; experiment: TRAIL induced apoptosis assay (carboxyfluorescein-FLICA, FACScan); assay type: cell-based; conditions: 2 or 5 μM pre-treatment two hours, then TRAIL 5 ng/ml or TRAIL-RII antibodies 10 ng/ml, 48 hours
Description: MDA-MB-231 breast cancer cells (2×10^5 cells in 60 mm plates) were treated first with 2 or 5 μM of DMAPT (LC-1). After two hours, TRAIL (TNF related-apoptosis-inducing-ligand, 5 ng/ml) or TRAIL-RII-activating antibodies (10 ng/ml) were added. After 48 hours of TRAIL or TRAIL-RII antibody treatment, cells were harvested and apoptosis was measured using carboxyfluorescein-FLICA assay. Briefly, both attached and floating cells were collected by trypsinization, incubated with carboxyfluorescein-labeled pan-caspase inhibitor FAM-VAD-FMK for 2 h at 37° C. Labeled cells were rinsed twice in PBS and resuspended in 300 μl of PBS containing 0.3 μg of propidium iodide. Apoptotic cells were identified by FACScan analysis. […] FAM-VAD-FMK stains apoptotic cells (upper left). Apoptotic cells that have lost plasma membrane integrity are stained by both FAM-VAD-FMK and propidium iodide (upper right). Necrotic cells are stained only by propidium iodide (lower right). MDA-MB-231 cells are relatively resistant to TRAIL.

NF-κB DNA binding = experiment: Electrophoretic mobility gel shift assay (EMSA); assay type: cell-based; conditions: three hours
Description: Each cancer cell line in exponential growth phase was treated with solvent control or various concentrations of parthenolide derivatives dissolved in 100% ethanol for 3 hours prior to harvesting. Cells were harvested and whole cell extracts were prepared as described previously (Nakshatri et al., Mol Cell Biol, 17: 3629-3639, 1997; Sweeney et al., Clin Cancer Res, 10: 5501-5507, 2004). Extracts were incubated with a radiolabelled NFκB probe for 30 minutes at room temperature. The oligonucleotide probe binds to the NFκB DNA binding site in the promoter region of the immunoglobulin gene. Electrophoresis and autoradioragraphy were performed as described previously (Nakshatri et al., 1997) using NFκB and SP-1 probes (Promega, Madison, Wis.). The specificity of parthenolide and derivative inhibition of NFκB DNA binding was verified by the use of the SP-1 probe as a control. Identification of the NFκB subunits binding to DNA and inhibited by DMAPT were identified by gel supershift. Constitutive NF-κB DNA binding activity was determined in the lung cancer cell lines A-549, H-23, H-522, and H-460. All four non-small lung cancer cells were treated with increasing concentrations of DMAPT for three hours, and NF-κB DNA binding was measured by electrophoretic mobility shift assay (EMSA) as described. NF-κB DNA binding activity was highest in A-549 cells, followed by H-23, H-522 and H-460 cells.
Cancer cell lines HT-1376 and UMUC-3 were treated with increasing concentrations of DMAPT for three hours. Whole cell extracts were prepared as described and DNA binding by NF-κB was analyzed by EMSA with NF-κB and OCT-1 (internal control) probes.
The hormone refractory prostate cancer cell line, CWR22Rv1 was treated with increasing concentrations of DMAPT for three hours. Whole cell extracts were prepared as described and DNA binding by NF-κB was analyzed by EMSA with NF-κB and SP-1 (internal control) probes.

## C/C1=C\CC[C@@]2(C)O[C@@H]2[C@H]2OC(=O)[C@H](CN(C)C)[C@@H]2CC1 [DMAPT, 11S,11,13-Dihydro,13-dimethylaminoparthenolide]
[1]
  toxicity on daily oral treatment: no overt toxicities
[2]
  sensitisation to TRAIL or TRAIL-RII activating antibody-induced apoptosis: became sensitive
NF-κB DNA binding; CWR22Rv1, 10 μM
  NF-κB DNA binding: substantial decreases
NF-κB DNA binding; HT-1376 and UMUC-3 cell lines, increasing concentrations
  NF-κB DNA binding: decreased NF-κB DNA binding in a dose-dependent manner
NF-κB DNA binding; lung cancer cell lines A-549, H-23, H-522, H-460, between 2 and 10 micromolar
  NF-κB DNA binding activity: substantially decreased
